Data: patent publication US4946841A, “Pyridazine 3,5-dihydroxy carboxylic acids and derivatives thereof, the use thereof for hypercholesterolemia” (Hoechst Aktiengesellachaft, priority 1988, dated 1990)
Read-outs that look alike come from different tables or passages of the source.

Assays:
[1] = tested on: cholesterol biosynthesis in HEP-G2 cells; assay: Inhibition of cholesterol biosynthesis in cell cultures of HEP-G2 cells; type: cell-based; details: Homo sapiens, HepG2, 14C-acetate precursor, read-out: IC50, concentration which brings about 50% inhibition of cholesterol biosynthesis
Experimental: Monolayers of HEP-G2 cells in lipoprotein-free nutrient medium were pre-incubated with appropriate concentrations of the test substances for a defined time (for example 1 hour) and, after addition of the labeled precursor, for example sodium ^14 C-acetate, incubation was continued (for example for 3 hours). After addition of an internal standard (^3 H-cholesterol) a portion of the cells was hydrolyzed with alkali. The lipids from the hydrolyzed cells were extracted with chloroform/methanol.
This Lipid mixture was, after addition of carrier cholesterol, subjected to preparative thin-layer chromatography, the cholesterol band was visualized with iodine vapor and then isolated, and the amount of ^14 C-cholesterol formed from the ^14 C-precursor was determined by scintigraphy. Cellular protein was determined in an aliquot of the cells, so that it is possible to calculate the amount of ^14 C-cholesterol formed per unit time per mg of cellular protein. Comparison of this figure with the amount of ^14 C-cholesterol formed per mg of cellular protein and unit time in a culture treated in the same way but free of test substance yielded the inhibitory effect of the particular test product on cholesterol biosynthesis of HEP-G2 cell cultures. […]

HMG-CoA reductase = biological target: T1, HMG-CoA reductase (Rattus norvegicus, UniProt P51639); assay: HMG-CoA reductase activity in enzyme preparations; type: biochemical, rats; details: solubilized enzyme from rat liver microsomes, 14C-HMG-CoA substrate; read-out: IC50, molar concentration of the compound required for 50% inhibition of HMG-CoA reductase
T1 construct: solubilized enzyme preparations from liver microsomes of rats; from tissue; host or cells: rat liver microsomes, solubilized; rats induced with cholestyramine (Cuemid)
T1 sequence (P51639 1-887): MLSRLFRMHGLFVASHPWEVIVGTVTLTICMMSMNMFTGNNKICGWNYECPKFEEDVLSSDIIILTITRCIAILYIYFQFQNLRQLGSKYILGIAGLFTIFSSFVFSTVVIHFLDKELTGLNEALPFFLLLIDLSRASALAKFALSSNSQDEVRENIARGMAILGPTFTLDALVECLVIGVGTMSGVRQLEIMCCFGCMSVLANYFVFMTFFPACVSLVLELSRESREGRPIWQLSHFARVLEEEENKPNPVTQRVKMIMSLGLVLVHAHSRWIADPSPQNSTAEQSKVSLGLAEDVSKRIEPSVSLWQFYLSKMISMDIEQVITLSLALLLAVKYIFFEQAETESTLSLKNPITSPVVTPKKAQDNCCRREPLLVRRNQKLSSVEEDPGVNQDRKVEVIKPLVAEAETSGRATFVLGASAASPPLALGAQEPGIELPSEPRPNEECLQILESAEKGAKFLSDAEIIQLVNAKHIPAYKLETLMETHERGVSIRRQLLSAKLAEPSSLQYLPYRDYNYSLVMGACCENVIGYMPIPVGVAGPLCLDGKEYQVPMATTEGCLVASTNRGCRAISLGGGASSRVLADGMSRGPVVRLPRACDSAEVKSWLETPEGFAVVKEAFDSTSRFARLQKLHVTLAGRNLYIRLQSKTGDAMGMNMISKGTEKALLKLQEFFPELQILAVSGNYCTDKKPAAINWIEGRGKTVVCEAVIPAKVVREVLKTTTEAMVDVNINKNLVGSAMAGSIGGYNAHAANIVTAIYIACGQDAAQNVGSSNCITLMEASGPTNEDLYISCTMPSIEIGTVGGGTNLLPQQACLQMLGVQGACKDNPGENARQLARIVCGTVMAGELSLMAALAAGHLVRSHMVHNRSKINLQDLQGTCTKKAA
Experimental: The HMG-CoA reductase activity was measured on solubilized enzyme preparations from liver microsomes of rats which, after changing over the day/night rhythm, were induced with cholestyramine (®Cuemid).
The substrate used was (S,R)^14 C-HMG-CoA, and the concentration of NADPH was maintained during the incubation by a regenerating system. ^14 C-mevalonate was removed from the substrate and other products (for example ^14 C-HMG) by column elution, with the elution profile of each individual sample being determined. ^3 H-mevalonate was not included in every test because the determination was of the relative inhibitory effect. In each series of tests, the enzyme-free control, the enzyme-containing normal mixture (=100%) and one with added product, final concentration 10^-5 to 10^-9 M, were treated together. Each individual value was formed as the mean of 3 parallel samples. The significance of the differences between the means for product-free and product-containing samples was assessed by the t test.
The method described above was used to determine the figures for the inhibition of HMG-CoA reductase by the compounds according to the invention (IC50 /mol/liter signifies the molar concentration of the compound required for 50% inhibition): […]

[2] = rat; cited from earlier work
[3] = tests on humans; cited from earlier work

Row | IC50 (HMG-CoA reductase) [µM] | SMILES | IC50 [1] [µM] | cholesterol-lowering action [2] | cholesterol-lowering action [3]
1 | 0.0017 | CC(C)c1nnc(-c2ccc(F)cc2)c(-c2ccc(F)cc2)c1/C=C/[C@@H](O)C[C@@H](O)CC(=O)O (relative stereo) [Example 13a, Sodium 7-[3,4-di(4-fluorophenyl)-6-isopropylpyridazin-5-yl]-3,5-dihydroxy-6-heptenoate] | 0.05 | – | –
2 | – | CC(O)(CC(=O)O)CC(=O)O [3-Hydroxy-3-methylglutaric acid] | – | significant cholesterol-lowering action | significant cholesterol-lowering action
3 | 0.0013 | CC(C)c1nnc(-c2ccc(F)cc2)c(-c2ccc(F)cc2)c1/C=C/[C@@H](O)C[C@@H](O)CC(=O)O [Example 19a, Sodium 7-[3,4-di(4-fluorophenyl)-6-isopropylpyridazin-5-yl]-3(R),5(S)-dihydroxy-6(E)-heptenoate] | 0.025 | – | –
